# Reference: patent US20040014813A1, “Anthelminthic agents for the prevention of parasitic infections in humans and animals II” (priority 2000, published 2004)
# Key:
# [1] = system: cercariae of Schistosoma mansoni; settings: literature (Fripp and Armstrong 1973; Salafsky et al. 1998); cited from earlier work
# [2] = EU Directive on Dangerous Substances; Registry of Toxic Effects of Chemical Substances; cited from earlier work
# [3] = system: Schistosoma mansoni cercariae; assay: Activity against Schistosoma mansoni cercariae (survival/mobility under stereomagnifier); assay type: cell-based; set-up: key: no effect during the entire test period of 120 minutes; 1: weak effect (the cercariae have a strongly reduced mobility); 2: good effect (the cercariae are only slightly mobile and bent); 3: full effect (the cercariae are completely immobile); settings: 500 >1/l final concentration of the active compounds; 5 μl active compound in 25 μl PEG300 + 9 ml aquarium water + 1 ml cercariae suspension; test period 120 minutes
# Description: Activity Against Schistosoma Mansoni Cercariae
# [500 >1/l Final Concentration of the Active Compounds]
# Snails (Biomphalaria glabrata) were infected by incubating each of them with 8 miracidia in 10 ml of water overnight. About 6 to 9 weeks after the infection, cercariae were obtained by irradiating the snails, which had been kept in darkness, with light, followed by collection of the swarming cercariae within 2 hours.
# Such an amount of cercariae-containing water (1 or 2 ml, see below) was added to the test batches that each batch contained about 100 to 150 cercariae.
# 5 μl of active compound were mixed thoroughly with 25 μl of PEG300. 9 ml of aquarium water was then added, and the batch was shaken vigorously. After (delayed) addition of 1 ml of cercariae suspension, survival of the cercariae was in each case observed immediately using a stereomagnifier.
# [4] = system: cercariae of Schistosoma mansoni; settings: literature (Bruce et al. 1992), monkeys, topical; cited from earlier work
smiles,measurement,setting,value
"CCN(CC)C(=O)c1cccc(C)c1 [N,N-Diethyl-m-toluamide (DEET), N,N-Diethyl-m-toluamide]",effect on cercariae of Schistosoma mansoni,[1],acts against cercariae
Oc1c(Cl)cc(Cl)c(Cl)c1Cc1c(O)c(Cl)cc(Cl)c1Cl [hexachlorophene],effect on cercariae of Schistosoma mansoni,[1],lethal effect
same,toxicity,[2],toxic on contact with the skin and when swallowed
CCN(CC)C(=O)CC1CCCCC1,Assessment,[3],3
CCCCC(=O)N1CCCCC1CCO (stereo not drawn),Assessment,[3],2
CC(C)(C)C(=O)N1CCCCC1CCO (stereo not drawn),Assessment,[3],3
O=C(Nc1ccc([N+](=O)[O-])cc1Cl)c1cc(Cl)ccc1O [Niclosamide],action against the penetration of cercariae,[4],acts against the penetration of cercariae
same,toxicity,[2],may possibly cause inheritable genetic damage
CCCCC(=O)N1CCCCC1CCOC (stereo not drawn),Assessment,[3],2
